Active and inactive are the calls of the source. No cut-off for these calls is given here.
Assays:
3T3-L1 [1] = test: Induction of [3H] 2-deoxyglucose uptake in chronic insulin resistant mouse 3T3L1 cells assessed as maximum uptake at 10 uM by liquid scintillation counting; format: functional
3T3-L1 [2] = test: Induction of AMPK phosphorylation in mouse 3T3L1 cells at 1 mM by Western blot analysis; format: cell-based
3T3-L1 [3] = test: Induction of [3H] 2-deoxyglucose uptake in chronic insulin resistant mouse 3T3L1 cells assessed as maximum uptake by liquid scintillation counting; format: functional, cell-based
3T3-L1 [4] = test: Induction of AMPK phosphorylation in mouse 3T3L1 cells at 10 uM by Western blot analysis; format: cell-based
3T3-L1 [5] = test: Induction of AKT phosphorylation in mouse 3T3L1 cells at 10 uM by Western blot analysis; format: cell-based
3T3-L1 [6] = test: Induction of [3H] 2-deoxyglucose uptake in chronic insulin resistant mouse 3T3L1 cells at 10 uM after 24 hrs by liquid scintillation counting in presence of AMPK inhibitor compound C; format: functional, cell-based
3T3-L1 [7] = test: Inhibition of adipogenesis in mouse 3T3L1 cells assessed as reduction in lipid droplet formation at 20 uM by using Oil-Red O by microscopy; format: functional
3T3-L1 [8] = test: Inhibition of adipogenesis in mouse 3T3L1 cells assessed as reduction in lipid droplet formation at 50 uM by using Oil-Red O by microscopy; format: functional
3T3-L1 [9] = test: Inhibition of adipogenesis in mouse 3T3L1 cells assessed as reduction in lipid droplet formation at 10 uM by using Oil-Red O by microscopy; format: functional, cell-based
[10] = Toxicity in mouse 3T3L1 cells; format: cell-based; settings: 3t3-l1
3T3-L1 [11] = test: Inhibition of adipogenesis in mouse 3T3L1 cells assessed as reduction in lipid droplet formation by using Oil-Red O by microscopy; format: functional, cell-based

O=C(OC[C@H]1O[C@@H](Oc2ccc(OCc3ccccc3)cc2CO)[C@H](O)[C@@H](O)[C@@H]1O)c1ccccc1
Activity (3T3-L1 [1]): Active

O=C(COc1ccc(O[C@@H]2O[C@H](COC(=O)c3ccccc3)[C@@H](O)[C@H](O)[C@H]2O)c(CO)c1)c1ccccc1
Activity (3T3-L1 [1]): Active

CN(C)C(=N)NC(=N)N
Activity (3T3-L1 [2]): Active

O=C(COc1ccc(O[C@@H]2O[C@H](COC(=O)c3ccccc3)[C@@H](O)[C@H](O)[C@H]2O)c(CO)c1)c1ccc(Cl)cc1
Activity (3T3-L1 [1]): Active

CC(=O)OCc1cc(OC(C)=O)ccc1O[C@@H]1O[C@H](COC(=O)c2ccccc2)[C@@H](OC(C)=O)[C@H](OC(C)=O)[C@H]1OC(C)=O
Activity (3T3-L1 [1]): 17.35 pmol/mg/min
Activity (3T3-L1 [3]): Dose-dependent effect
Activity (3T3-L1 [4]): Active
Activity (3T3-L1 [5]): inactive
Activity (3T3-L1 [6]): inactive
inhibition at 20 µM (3T3-L1 [7]): 20%
inhibition at 50 µM (3T3-L1 [8]): 64%
inhibition (3T3-L1 [9]): inactive
Activity [10]: Non-toxic
inhibition (3T3-L1 [11]): Dose-dependent effect

O=C(OC[C@H]1O[C@@H](Oc2ccc(O)cc2CO)[C@H](O)[C@@H](O)[C@@H]1O)c1ccccc1
Activity (3T3-L1 [1]): Active

CCOc1ccc(O[C@@H]2O[C@H](COC(=O)c3ccccc3)[C@@H](O)[C@H](O)[C@H]2O)c(CO)c1
Activity (3T3-L1 [1]): Active

O=C(OC[C@H]1O[C@@H](Oc2ccc(OCc3ccc([N+](=O)[O-])cc3)cc2CO)[C@H](O)[C@@H](O)[C@@H]1O)c1ccccc1
Activity (3T3-L1 [1]): Active

Reference: ChEMBL document CHEMBL3351444, “Poliothrysoside and its derivatives as novel insulin sensitizers potentially driving AMPK activation and inhibiting adipogenesis” (Eur J Med Chem, 2014)
